From ChEMBL document CHEMBL1157141, “Prediction of intestinal absorption and metabolism of pharmacologically active flavones and flavanones” (Bioorg Med Chem, 2008)

Columns and labels:
[1] = Apparent permeability from apical to basolateral side in human Caco-2 cells; format: ADME, cell-based; conditions: read-out: permeability
[2] = Stability in hank's balanced salt solution at 15 uM after 180 mins; format: physicochemical; conditions: read-out: Stability
[3] = Stability in hank's balanced salt solution at 15 uM after 60 mins; format: physicochemical; conditions: read-out: Stability
[4] = Apparent permeability from basolateral to apical side in human Caco-2 cells assessed as drug recovery; format: ADME, cell-based; conditions: read-out: Activity
[5] = Ratio of permeability from basolateral to apical side over apical to basolateral side in human Caco-2 cells; format: ADME, cell-based
[6] = Apparent permeability across PAMPA membrane assessed as drug recovery; format: ADME; conditions: read-out: Activity
[7] = Stability in hank's balanced salt solution at 15 uM after 20 mins; format: physicochemical; conditions: read-out: Stability
[8] = Stability in hank's balanced salt solution at 15 uM after 120 mins; format: physicochemical; conditions: read-out: Stability
[9] = Apparent permeability from basolateral to apical side in human Caco-2 cells; format: ADME, cell-based; conditions: read-out: permeability
[10] = Stability in hank's balanced salt solution at 15 uM after 24 hrs; format: physicochemical; conditions: read-out: Stability
[11] = Apparent permeability from apical to basolateral side in human Caco-2 cells assessed as drug recovery; format: ADME, cell-based; conditions: read-out: Activity
[12] = Apparent permeability across PAMPA membrane; format: ADME; conditions: read-out: permeability

| Papp A→B [1] [×10⁻⁶ cm/s] | remaining at 3 h, 15 µM [2] [%] | remaining at 1 h, 15 µM [3] [%] | recovery [4] [%] | efflux ratio [5] | recovery [6] [%] | remaining at 20 min, 15 µM [7] [%] | remaining at 2 h, 15 µM [8] [%] | Papp B→A [9] [×10⁻⁶ cm/s] | remaining at 24 h, 15 µM [10] [%] | recovery [11] [%] | Papp [12] [×10⁻⁶ cm/s] | Structure (SMILES) |
| --- | --- | --- | --- | --- | --- | --- | --- | --- | --- | --- | --- | --- |
| – | 78.4 | – | 68.9 | – | – | 103 | 88.6 | – | 0 | 61.9 | – | COc1ccc(-c2cc(=O)c3c(O)cc(O[C@@H]4O[C@H](CO[C@@H]5O[C@@H](C)[C@H](O)[C@@H](O)[C@H]5O)[C@@H](O)[C@H](O)[C@H]4O)cc3o2)cc1O [DIOSMIN] |
| 47.1 | 90.8 | 99.9 | 70.1 | 0.6 | 84 | 94.5 | 91.1 | 27 | 80 | 34.1 | 35.7 | COc1ccc([C@@H]2CC(=O)c3c(O)cc(O)cc3O2)cc1O [HESPERETIN] |
| – | 86.3 | – | 80.2 | – | – | 99.8 | 87.9 | – | 84.9 | 76.9 | – | COc1ccc([C@@H]2CC(=O)c3c(O)cc(O[C@@H]4O[C@H](CO[C@@H]5O[C@@H](C)[C@H](O)[C@@H](O)[C@H]5O)[C@@H](O)[C@H](O)[C@H]4O)cc3O2)cc1O [HESPERIDIN] |
| – | 90.4 | – | 88.4 | – | – | 98.3 | 92.2 | – | 88.5 | 85.7 | – | C[C@@H]1O[C@@H](O[C@H]2[C@H](Oc3cc(O)c4c(c3)O[C@H](c3ccc(O)cc3)CC4=O)O[C@H](CO)[C@@H](O)[C@@H]2O)[C@H](O)[C@H](O)[C@H]1O [NARINGIN] |

Second part, the compound before the results:

| Structure (SMILES) | Papp A→B [1] [×10⁻⁶ cm/s] | remaining at 3 h, 15 µM [2] [%] | remaining at 1 h, 15 µM [3] [%] | recovery [4] [%] | efflux ratio [5] | recovery [6] [%] | remaining at 20 min, 15 µM [7] [%] | remaining at 2 h, 15 µM [8] [%] | Papp B→A [9] [×10⁻⁶ cm/s] | remaining at 24 h, 15 µM [10] [%] | recovery [11] [%] | Papp [12] [×10⁻⁶ cm/s] |
| --- | --- | --- | --- | --- | --- | --- | --- | --- | --- | --- | --- | --- |
| COc1ccc(-c2cc(=O)c3c(O)cc(O)cc3o2)cc1O [DIOSMETIN] | 76.2 | 98.4 | 96.5 | 66.8 | 0.2 | 82 | 100 | 101 | 12.4 | 50.9 | 59.1 | 76.1 |
| O=C1C[C@@H](c2ccc(O)cc2)Oc2cc(O)cc(O)c21 [NARINGENIN] | 37.8 | 91.2 | 99.4 | 93 | – | 87 | – | 100 | 51.4 | 79.9 | 54.4 | 25.7 |
